# Assay results published in patent US20210069351A1, “METHOD FOR SCREENING PAIN INHIBITING SUBSTANCE” (priority 2017, published 2021).
# Tests used:
# [1] = Stability of GABA and glutamate test samples under storage, treatment and analysis conditions; assay type: physicochemical
# Method: The test samples were stored in a freezer at −70° C., and thawed at room temperature before use. 20 μL of microdialysate was added to 20 μL of acetonitrile, well mixed (vortexing, 30 sec) and centrifuged at 3,000 rpm for 5 minutes. A supernatant was taken and injected by 5 μL for LC-MS/MS analysis.
# Stability was tested under various conditions for which GABA and a glutamate test sample could be exposed.
# β-endorphin = test: Neuropeptide and cytokine concentrations in spinal cord dorsal horn microdialysate after pregabalin; assay type: in vivo, rat; conditions: 30 mg/kg pregabalin, neuropathic pain model and control
# Source text: Spared nerve injury (SNI) models were used to assess the concentration of a pain indicator substance present in a dorsal horn in the spinal cord. To generate an efficient neuropathic pain model, the rats were anesthetized under 3% isoflurane (Hana Pharm., South Korea), after incision on the left hind of the rat leg the common peroneal and the tibial nerve of three peripheral nerve branches in the sciatic nerve were axotomized and the sural nerve was spared then the surgical site was closed (FIG. 1). After surgery, animals were placed in the home cage to recover. 2 weeks after surgery, hypersensitivity will occur in the lateral area of the rat left hind paw.
# Before inserting microdialysis probe into the tissue, the probe was immersed in 70% ethanol and washed for 15 minutes at the flow rate of 3.5 ul/min. Then, the probe was immersed in distilled water and washed for 15 minutes in the same protocol. When the washing step was completed, the probe was inserted at a depth of approximately 2 mm into the dorsal horn of the L1 spinal cord (FIG. 4). […]
# For analysis of the neuropeptide and cytokine of the test samples was used using “Luminex 200 multiplex system” by multiplex cytokines assay. Ten most important of pain-related neuropeptides such as IFN-gamma, IL-1 beta, IL-6, IL-10, TNF-α, MCP-1, MIP-1α, BDNF, substance P and β-endorphin and cytokines were analyzed using a total of 4 kits.
smiles,measurement,setting,value
"N[C@@H](CCC(=O)O)C(=O)O [Glutamate, glutamate]","Remaining, freeze/thaw","[1]; 3 cycles, 20 ng/mL",104.1%
same,"Remaining, freeze/thaw","[1]; 3 cycles, 100 ng/mL",100.8%
same,"Remaining, freeze/thaw","[1]; 3 cycles, 800 ng/mL",101.9%
same,"Remaining, autosampler tray","[1]; 4° C. for 6 h, 20 ng/mL",106.5%
same,"Remaining, autosampler tray","[1]; 4° C. for 6 h, 100 ng/mL",102.3%
same,"Remaining, autosampler tray","[1]; 4° C. for 6 h, 800 ng/mL",101.1%
same,"Remaining, microdialysis sample at RT","[1]; RT for 6 h, 20 ng/mL",101.3%
same,"Remaining, microdialysis sample at RT","[1]; RT for 6 h, 100 ng/mL",97.3%
same,"Remaining, microdialysis sample at RT","[1]; RT for 6 h, 800 ng/mL",99.8%
same,"Remaining, long term stability","[1]; −70° C. 1 month, 20 ng/mL",104.2%
same,"Remaining, long term stability","[1]; −70° C. 1 month, 100 ng/mL",98.6%
same,"Remaining, long term stability","[1]; −70° C. 1 month, 800 ng/mL",96.0%
"NCCCC(=O)O [GABA, γ-aminobutyric acid]","Remaining, freeze/thaw",[1]; 20 ng/mL,103.1%
same,"Remaining, freeze/thaw",[1]; 100 ng/mL,106.7%
same,"Remaining, freeze/thaw",[1]; 800 ng/mL,101.6%
same,"Remaining, long term stability","[1]; 1 month, 20 ng/mL",101.8%
same,"Remaining, long term stability","[1]; 1 month, 100 ng/mL",102.3%
same,"Remaining, long term stability","[1]; 1 month, 800 ng/mL",97.7%
same,"Remaining, autosampler tray","[1]; 6 h, 20 ng/mL",105.4%
same,"Remaining, microdialysis sample at RT","[1]; 6 h, 20 ng/mL",105.3%
same,"Remaining, autosampler tray","[1]; 6 h, 100 ng/mL",101.2%
same,"Remaining, microdialysis sample at RT","[1]; 6 h, 100 ng/mL",100.6%
same,"Remaining, autosampler tray","[1]; 6 h, 800 ng/mL",92.1%
same,"Remaining, microdialysis sample at RT","[1]; 6 h, 800 ng/mL",91.8%
CC(C)C[C@H](CN)CC(=O)O [pregabalin],concentrations of β-endorphin in microdialysate,β-endorphin,significantly increased and then decreased
